Reference: patent publication US20240000767A1, “COMBINATION OF AN ALPHA2-ADRENOCEPTOR SUBTYPE C (ALPHA-2C) ANTAGONIST WITH A TASK1/3 CHANNEL BLOCKER FOR THE TREATMENT OF SLEEP APNEA” (Bayer Aktiengesellschaft, priority 2020, published 2024)

Target: human ADRA2C receptor (Homo sapiens (Human), UniProt P18825)
Assay: In vitro activity assay to determine the inhibition of recombinant ADRA2C (CHO-K1 cells, aequorin bioluminescence)
Assay type: cell-based
Details: inhibition of noradrenaline-induced bioluminescence signal; some mean values from multiple determinations; read-out: ARα2C IC50
Procedure, shortened: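 IC50 is the concentration halving the agonist (noradrenaline)-evoked rise in aequorin luminescence, fitted by 4-parameter Hill function. Read in stable Gαq/aequorin CHO-K1 cells expressing recombinant human ADRA2C.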

human ADRA2C receptor, sequence (P18825 whole entry): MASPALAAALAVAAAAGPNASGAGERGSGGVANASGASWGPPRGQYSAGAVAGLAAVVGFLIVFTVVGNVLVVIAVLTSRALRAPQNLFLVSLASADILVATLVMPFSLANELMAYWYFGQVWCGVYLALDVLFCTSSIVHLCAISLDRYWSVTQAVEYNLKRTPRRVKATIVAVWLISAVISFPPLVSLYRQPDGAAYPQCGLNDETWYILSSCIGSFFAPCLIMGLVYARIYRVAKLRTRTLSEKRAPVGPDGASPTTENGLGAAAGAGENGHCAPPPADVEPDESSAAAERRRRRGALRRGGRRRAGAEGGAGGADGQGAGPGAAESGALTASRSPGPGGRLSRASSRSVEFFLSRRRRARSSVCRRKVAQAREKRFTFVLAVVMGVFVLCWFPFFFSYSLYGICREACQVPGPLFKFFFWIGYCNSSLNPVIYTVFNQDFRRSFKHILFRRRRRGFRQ

Compound | IC50
CC1(C)CCCN(C2CCN(c3ncc(C(=O)NCc4ncc(F)cc4F)s3)CC2)C1 [Example 63, N-[(3,5-Difluoropyridin-2-yl)methyl]-2-(3,3-dimethyl[1,4′-bipiperidin]-1′-yl)-1,3-thiazole-5-carboxamide] | 570 nM
O=C(NCc1ncc(F)cc1F)c1cnc(N2CCC(N3CCCC4(CC4)C3)CC2)s1 [Example 64, 2-[4-(5-Azaspiro[2.5]octan-5-yl)piperidin-1-yl]-N-[(3,5-difluoropyridin-2-yl)methyl]-1,3-thiazole-5-carboxamide] | 1.4 nM
C[C@@H]1CCCN(C2CCCN(c3ncc(C(=O)NCc4ncc(F)cc4F)s3)CC2)C1 (stereo partly drawn) [Example 71, N-[(3,5-Difluoropyridin-2-yl)methyl]-2-{4-[(3R)-3-methylpiperidin-1-yl]azepan-1-yl}-1,3-thiazole-5-carboxamide] | 100 nM
Cc1ccc(CNC(=O)c2cnc(N3CCC(N4CCC[C@@H](C)C4)CC3)s2)cn1 [Example 72, 2-[(3R)-3-methyl[1,4′-bipiperidin]-1′-yl]-N-[(6-methylpyridin-3-yl)methyl]-1,3-thiazole-5-carboxamide] | 180 nM
C[C@@H]1CCCN(C2CCN(c3ncc(C(=O)NCc4ccccc4)s3)CC2)C1 [Example 73, N-Benzyl-2-[(3R)-3-methyl[1,4′-bipiperidin]-1′-yl]-1,3-thiazole-5-carboxamide] | 219 nM
CC(F)CCOCC1CCCN(C2CCN(c3ncc(C(=O)NCc4ncc(F)cc4F)s3)CC2)C1 (stereo not drawn) [Example 74, diamix-N-[(3,5-Difluoropyridin-2-yl)methyl]-2-[3-({[3-fluorobutyl]oxy}methyl)[1,4′-bipiperidin]-1′-yl]-1,3-thiazole-5-carboxamide] | 285 nM
C[C@@H]1CCCN(C2CCN(c3ncc(C(=O)NCc4ccncc4F)s3)CC2)C1 [Example 76, N-[(3-Fluoropyridin-4-yl)methyl]-2-[(3R)-3-methyl[1,4′-bipiperidin]-1′-yl]-1,3-thiazole-5-carboxamide] | 400 nM
Cc1cc(C)c(CNC(=O)c2cnc(N3CCC(N4CCC[C@@H](C)C4)CC3)s2)cn1 [Example 78, N-[(4,6-Dimethylpyridin-3-yl)methyl]-2-[(3R)-3-methyl[1,4′-bipiperidin]-1′-yl]-1,3-thiazole-5-carboxamide] | 755 nM
C[C@@H]1CCCN(C2CCN(c3ncc(C(=O)NCc4c(Cl)cnn4C)s3)CC2)C1 [Example 79, N-[(4-Chloro-1-methyl-1H-pyrazol-5-yl)methyl]-2-[(3R)-3-methyl[1,4′-bipiperidin]-1′-yl]-1,3-thiazole-5-carboxamide] | 50.3 nM
COc1cccc(CNC(=O)c2cnc(N3CCC(N4CCC[C@@H](C)C4)CC3)s2)c1 [Example 80] | 90.5 nM
C[C@@H]1CCCN(C2CCN(c3ncc(C(=O)NCc4cc(F)ccc4F)s3)CC2)C1 [Example 81] | 22.2 nM
C[C@@H]1CCCN(C2CCN(c3ncc(C(=O)NCc4cccc(O)c4)s3)CC2)C1 [Example 82] | 102 nM
CC(CNC(=O)c1cnc(N2CCC(N3CCC[C@@H](C)C3)CC2)s1)c1ccccc1 (stereo partly drawn) [Example 83] | 98.1 nM
C[C@@H]1CCCN(C2CCN(c3ncc(C(=O)NCc4ccc(F)cc4)s3)CC2)C1 [Example 84] | 65 nM
C[C@@H]1CCCN(C2CCN(c3ncc(C(=O)NCc4cccnc4)s3)CC2)C1 [Example 85] | 600 nM
C[C@@H]1CCCN(C2CCN(c3ncc(C(=O)NCc4cccc(F)c4)s3)CC2)C1 [Example 86] | 28 nM
C[C@@H]1CCCN(C2CCN(c3ncc(C(=O)NCc4ccccc4F)s3)CC2)C1 [Example 87] | 25.5 nM
C[C@@H]1CCCN(C2CCN(c3ncc(C(=O)Nc4ccc(F)c(C#N)c4)s3)CC2)C1 [Example 89] | 230 nM
C[C@@H]1CCCN(C2CCN(c3ncc(C(=O)N(C)Cc4cccnc4)s3)CC2)C1 [Example 90] | 97 nM
C[C@@H]1CCCN(C2CCN(c3ncc(C(=O)N(C)Cc4ccncc4)s3)CC2)C1 [Example 91] | 284 nM
C[C@@H]1CCCN(C2CCN(c3ncc(C(=O)N(C)Cc4ccccc4)s3)CC2)C1 [Example 92] | 85 nM
C[C@@H]1CCCN(C2CCN(c3ncc(C(=O)Nc4ccccc4C4CC4)s3)CC2)C1 [Example 93] | 630 nM
C[C@@H]1CCCN(C2CCN(c3ncc(C(=O)NCc4cccc(Cl)c4)s3)CC2)C1 [Example 94] | 150 nM
Cc1ccc(C(C)NC(=O)c2cnc(N3CCC(N4CCC[C@@H](C)C4)CC3)s2)cc1 (stereo partly drawn) [Example 95] | 800 nM

Compound | IC50
C[C@@H]1CCCN(C2CCN(c3ncc(C(=O)Nc4cc(Cl)ccc4O)s3)CC2)C1 [Example 96] | 1000 nM
COc1ccc(F)cc1NC(=O)c1cnc(N2CCC(N3CCC[C@@H](C)C3)CC2)s1 [Example 97] | 1300 nM
CCc1cc(NC(=O)c2cnc(N3CCC(N4CCC[C@@H](C)C4)CC3)s2)ccn1 [Example 98] | 1600 nM
O=C(NCc1ncc(F)cc1F)c1cnc(N2CCC(N3CCC[C@@H](OCC4CC4)C3)CC2)s1 [Example 114, 2-[(3R)-3-(Cyclopropylmethoxy)[1,4′-bipiperidin]-1′-yl]-N-[(3,5-difluoropyridin-2-yl)methyl]-1,3-thiazole-5-carboxamide] | 1.3 nM
C[C@@H]1CCCN(C2CCN(c3nc(-c4ccccc4Cl)c(C(=O)NCc4ncc(F)cc4F)s3)CC2)C1 [Example 118, 4-(2-Chlorophenyl)-N-[(3,5-difluoropyridin-2-yl)methyl]-2-[(3R)-3-methyl[1,4′-bipiperidin]-1′-yl]-1,3-thiazole-5-carboxamide] | 7.7 nM
C[C@@H]1CCCN(C2CCN(c3nc(Cl)c(C(=O)NCc4ncc(F)cc4F)s3)CC2)C1 [Example 120, 4-Chloro-N-[(3,5-difluoropyridin-2-yl)methyl]-2-[(3R)-3-methyl[1,4′-bipiperidin]-1′-yl]-1,3-thiazole-5-carboxamide] | 41 nM
C[C@@H]1CCCN(C2CCN(c3nc(C4CC4)c(C(=O)NCc4ncc(F)cc4F)s3)CC2)C1 [Example 122, 4-Cyclopropyl-N-[(3,5-difluoropyridin-2-yl)methyl]-2-[(3R)-3-methyl[1,4′-bipiperidin]-1′-yl]-1,3-thiazole-5-carboxamide] | 13 nM
O=C(NCc1ncc(F)cc1F)c1cnc(N2CCC(N3CCCCC3)CC2)s1 [Example 128, 2-([1,4′-Bipiperidin]-1′-yl)-N-[(3,5-difluoropyridin-2-yl)methyl]-1,3-thiazole-5-carboxamide] | 550 nM
C[C@@H]1CCCN(C2CCN(c3ncc(C(=O)NC4(c5ncc(F)cc5F)CC4)s3)CC2)C1 [Example 129, N-[1-(3,5-Difluoropyridin-2-yl)cyclopropyl]-2-[(3R)-3-methyl[1,4′-bipiperidin]-1′-yl]-1,3-thiazole-5-carboxamide] | 10 nM
CCc1nc(N2CCC(N3CCC[C@@H](C)C3)CC2)sc1C(=O)NCc1ncc(F)cc1F [Example 130, N-[(3,5-Difluoropyridin-2-yl)methyl]-4-ethyl-2-[(3R)-3-methyl[1,4′-bipiperidin]-1′-yl]-1,3-thiazole-5-carboxamide] | 0.54 nM
O=C(NCc1ncc(F)cc1F)c1cnc(N2CCC(N3CCCC4(C3)CC4(F)F)C(F)C2)s1 (stereo not drawn) [Example 134, diamix-2-[4-(1,1-Difluoro-5-azaspiro[2.5]octan-5-yl)-3-fluoropiperidin-1-yl]-N-[(3,5-difluoropyridin-2-yl)methyl]-1,3-thiazole-5-carboxamide] | 0.74 nM
O=C(NCc1ncc(F)cc1F)c1cnc(N2CCC(N3CCCC4(COC4)C3)CC2)s1 [Example 136] | 320 nM
O=C(NCc1ncc(F)cc1F)c1cnc(N2CCC(N3CCCC(C4CC4)C3)CC2)s1 (stereo not drawn) [Example 137] | 19 nM
O=C(NCc1ncc(F)cc1F)c1cnc(N2CCC(N3CCCC(C4CCC4)C3)CC2)s1 (stereo not drawn) [Example 138] | 6.5 nM
O=C(NCc1ncc(F)cc1F)c1cnc(N2CCC(N3CCc4ccc(Cl)cc4C3)CC2)s1 [Example 139] | 0.65 nM
O=C(NCc1ncc(F)cc1F)c1cnc(N2CCC(N3CCc4cccc(Cl)c4C3)CC2)s1 [Example 141] | 8.7 nM
O=C(NCc1ncc(F)cc1F)c1cnc(N2CCC(N3CCc4c(Cl)cccc4C3)CC2)s1 [Example 142] | 6.7 nM
O=C(NCc1ncc(F)cc1F)c1cnc(N2CCC(N3CCc4cccc(F)c4C3)CC2)s1 [Example 144] | 1.8 nM
COc1ccc2c(c1)CCN(C1CCN(c3ncc(C(=O)NCc4ncc(F)cc4F)s3)CC1)C2 [Example 145] | 1 nM
Cc1ccc2c(c1)CCN(C1CCN(c3ncc(C(=O)NCc4ncc(F)cc4F)s3)CC1)C2 [Example 146] | 1.72 nM
COCCC1CCCN(C2CCN(c3ncc(C(=O)NCc4ncc(F)cc4F)s3)CC2)C1 (stereo not drawn) [Example 148] | 1.3 nM
CC(C)(C)C1CCCN(C2CCN(c3ncc(C(=O)NCc4ncc(F)cc4F)s3)CC2)C1 (stereo not drawn) [Example 149] | 35 nM
C[C@@H]1CCCN(C2CCN(c3ncc(C(=O)N(C)Cc4ncc(F)cc4F)s3)CC2)C1 [Example 150] | 200 nM
C[C@@H]1CCCN(C2CCN(c3ncc(C(=O)NCc4ccccc4Cl)s3)CC2)C1 [Example 151] | 170 nM
